According to US6835742B2, “Synergistic effect of amlodipine and atorvastatin on cholesterol crystal formation inhibition and aortic endothelial cell nitric oxide release” (priority 2000, dated 2004):

Legend:
[1] = Small angle x-ray diffraction of cholesterol-enriched reconstituted membranes (cholesterol domain formation); assay type: physicochemical; settings: for d-space of surrounding sterol-poor membrane region: 5° C., 74% relative humidity
coronary artery disease = settings: cited from earlier work
[2] = system: rabbit aorta endothelial cell; assay: NO release from a single rabbit aorta endothelial cell (porphyrinic sensor); assay type: cell-based; settings: after injection of atorvastatin; 37° C.
Method: NO release measurements. All measurements presented were recorded in vitro. NO release was measured directly from a single endothelial cell in the rabbit aorta. Measurements were done in Hank's balance solution at 37° C. […] The sensor operated with a three-electrode system [sensor working electrode, platinum wire (0.1 mm) counter electrode, and saturated calomel electrode (SCE—reference electrode)]. The three electrodes were connected to a potentiostat/galvanostat PAR273. Data were acquired with the use of an IBM computer with custom software. […] SCE. The release of NO was initiated by the injection of potential agonists of endothelial NO synthase (eNOS) using a temtoinjector placed in the controlled distance from the endothelial cell. Two different agonists were tested: amlodipine and atorvastatin. The different concentrations of these two compounds applied simultaneously were also tested.

stable and advanced CAD = settings: compared to angioplasty with usual medical care; cited from earlier work
[3] = 1.1:1 cholesterol to phospholipid mole ratio, 5° C. (FIG. 5)
[4] = 1.2:1 cholesterol to phospholipid mole ratio, 5° C. (FIG. 4)
[5] = 1.2:1 cholesterol to phospholipid mole ratio

d-space of surrounding sterol-poor membrane region [1, 5] [Å] | d-space of surrounding sterol-poor membrane region ([1]; 1.1:1 cholesterol to phospholipid mole ratio) [Å] | SMILES | effect on cholesterol domain formation [1, 3] | effect on cholesterol domain formation [1, 4] | progression of carotid atherosclerosis (coronary artery disease; B-mode ultrasonographic assessments) | reduction in documented angina (coronary artery disease; compared to placebo) [%] | reduction in the need for revascularization (coronary artery disease; compared to placebo) [%] | maximum NO concentration released [2] [nmol/L] | reduction of overall incidence of cardiovascular events (stable and advanced CAD) [%] | time to a first ischemic event (stable and advanced CAD) | width of cholesterol monohydrate crystalline domains ([1]; samples containing verapamil, unaffected by temperature (93% relative humidity) or relative humidity (20° C.)) [Å]
57.8 | – | CCOC(=O)C1=C(COCCN)NC(C)=C(C(=O)OC)C1c1ccccc1Cl (centres unmarked) [AML, Amlodipine besylate] | no effect on domain formation | did not interfere with domain formation | significant slowing | 33 | 42 | – | – | – | –
56.8 | 55.8 | CC(C)c1c(C(=O)Nc2ccccc2)c(-c2ccccc2)c(-c2ccc(F)cc2)n1CC[C@@H](O)C[C@@H](O)CC(=O)[O-].CC(C)c1c(C(=O)Nc2ccccc2)c(-c2ccccc2)c(-c2ccc(F)cc2)n1CC[C@@H](O)C[C@@H](O)CC(=O)[O-].[Ca+2] [AT, atorvastatin calcium] | no effect on domain formation | did not interfere with domain formation | – | – | – | 20 ± 5 | 36 | significantly delayed | –
– | – | COc1ccc(CCN(C)CCCC(C#N)(c2ccc(OC)c(OC)c2)C(C)C)cc1OC (centres unmarked) [verapamil] | – | – | – | – | – | – | – | – | 34.0
